The text below walks through data of patent US20230129721A1, “STABILIZER FOR RADIOPHARMACEUTICALS AND RADIOPHARMACEUTICAL COMPOSITION COMPRISING THE SAME” (THE ASAN FOUNDATION, priority 2020, published 2023).

The nature of data set [1]: pH (paper) of [^18F]PI-2620 radiopharmaceutical composition over time at 40° C. It is filed as physicochemical.
A short description of data set [2]: Radiochemical purity of [^18F]PI-2620 radiopharmaceutical composition over time at 40° C. by HPLC. It is filed as physicochemical. How it is done:
Fluoride ([^18F]) and 2 mg of a precursor were dissolved in dimethyl sulfoxide, and the reaction mixture was fluorinated using an SN2 reaction at a temperature of 100° C. or higher. Then, a protecting group was hydrolyzed with sulfuric acid, and the mixture was neutralized with sodium hydroxide, purified using high-performance liquid chromatography (HPLC) (purification conditions: Luna C18 250×10 mm, phosphate buffer:acetonitrile=70:30 (v/v), 5.0 mL/min, UV=254 nm), and then formulated (formulation composition: 100 mg of sodium ascorbate, 2 nM phosphate buffer, and 10% ethanol) to obtain the [^18F]PI-2620 compound having a radiochemical purity of 100% (FIG. 1).
[^18F]PI-2620 was formulated with ethanol, ascorbic acid, and a phosphate buffer, and the radiochemical purity of the radiopharmaceutical composition was then measured at the elapsed times of 0 hour, 2 hours, 4 hours, and 6 hours at a temperature of 40° C. using HPLC (analysis conditions: Luna C18 250×4.6 mm, phosphate buffer:acetonitrile=60:40 (v/v), 1.0 mL/min, UV=254 nm).
[^18F]PI-2620 was obtained as a compound having a radiochemical purity of 100% in the same manner as in Example 1. To further confirm the stability of the compound, 2 equivalents of sodium ascorbate used in Example 1 was added during a formulation process (formulation composition: 200 mg of sodium ascorbate, a 2 nM phosphate buffer, and 10% ethanol), and the radiochemical purity of the radiopharmaceutical composition was then measured in the same manner as in Example 1 at the elapsed times of 0 hour, 2 hours, 4 hours, and 6 hours at a temperature of 40° C. using high-performance liquid chromatography (HPLC)
[^18F]PI-2620 was obtained as a compound having a radiochemical purity of 100% in the same manner as in Example 1. To check the causes of a decrease in radiochemical purity, the radiochemical purity of the radiopharmaceutical composition was then measured in the same manner as in Example 1 at the elapsed times of 0 hour, 2 hours, 4 hours, and 6 hours at a temperature of 40° C. under three formulation conditions (Condition 1: ethanol and water for injection (formulation composition: 10% ethanol); Condition 2: ethanol and a phosphate buffer (formulation composition: a 2 nM phosphate buffer and 10% ethanol); Condition 3: ethanol and a 2×phosphate buffer (formulation composition: a 4 nM phosphate buffer and 10% ethanol)) using high-performance liquid chromatography (HPLC).
[^18F]PI-2620 was obtained as a compound having a radiochemical purity of 98% or more in the same manner as in Example 1. As a novel stabilizing agent, vitamin B1 (VB1), vitamin B6 (VB6), vitamin B8 (VB8), vitamin B10 (VB10), or vitamin B12 (VB12) (formulation composition: 10% ethanol and a 50 mg/mL vitamin concentration) was added to ethanol and water for injection, and the radiochemical purity of the radiopharmaceutical composition was measured in the same manner as in Example 1 at the elapsed times of 0 hour, 2 hours, 4 hours, and 6 hours at a temperature of 40° C. using high-performance liquid chromatography (HPLC). A preparation including no vitamin B was used as the control.
[^18F]PI-2620 was obtained as a compound having a radiochemical purity of 98% or more in the same manner as in Example 1, and formulated with ethanol and a phosphate buffer (formulation composition: a 2 nM phosphate buffer and 10% ethanol). As a novel stabilizing agent, vitamin B1 (VB1), vitamin B6 (VB6), vitamin B8 (VB8), or vitamin B10 (VB10) was added at a concentration of 50 mg/mL, and the radiochemical purity of the radiopharmaceutical composition was measured in the same manner as in Example 1 at the elapsed times of 0 hour, 2 hours, 4 hours, and 6 hours at a temperature of 40° C. using high-performance liquid chromatography (HPLC). A preparation in which sodium ascorbate was added to the same concentrations of ethanol and phosphate buffer was used as the control. […]

The mark [3] stands for this setting: 2 nM phosphate buffer and 10% ethanol, vitamin 50 mg/mL (control: sodium ascorbate), 0 hr.
Where [4] appears, read: 2 nM phosphate buffer and 10% ethanol, vitamin 50 mg/mL (control: sodium ascorbate), 2 hr.
[5] abbreviates: 2 nM phosphate buffer and 10% ethanol, vitamin 50 mg/mL (control: sodium ascorbate), 4 hr.
The mark [6] stands for this setting: 2 nM phosphate buffer and 10% ethanol, vitamin 50 mg/mL (control: sodium ascorbate), 6 hr.
Setting [7] is: [^18F]PI-2620, 2 nM phosphate buffer and 10% ethanol, vitamin 50 mg/mL (control: sodium ascorbate), 0 hr.
Where [8] appears, read: [^18F]PI-2620, 2 nM phosphate buffer and 10% ethanol, vitamin 50 mg/mL (control: sodium ascorbate), 2 hr.
[9] abbreviates: [^18F]PI-2620, 2 nM phosphate buffer and 10% ethanol, vitamin 50 mg/mL (control: sodium ascorbate), 4 hr.
[10] abbreviates: [^18F]PI-2620, 2 nM phosphate buffer and 10% ethanol, vitamin 50 mg/mL (control: sodium ascorbate), 6 hr.

Turning to `O=C1O[C@H]([C@@H](O)CO)C([O-])=C1O.[Na+]` [Na ascorbate, sodium ascorbate], the “PH (paper)” value in data set [1] (setting [3]) was found to be 6; in data set [1] (setting [4]), 6; in data set [1] (setting [5]), 6; in data set [1] (setting [6]), 6; in data set [1] (100 mg sodium ascorbate, 2 nM phosphate buffer, 10% ethanol, 0 hr), 6; in data set [1] (100 mg sodium ascorbate, 2 nM phosphate buffer, 10% ethanol, 2 hr), 6. In addition, the “PH (paper)” value is 6 in data set [1] (100 mg sodium ascorbate, 2 nM phosphate buffer, 10% ethanol, 4 hr); 6 in data set [1] (100 mg sodium ascorbate, 2 nM phosphate buffer, 10% ethanol, 6 hr); 6 in data set [1] (200 mg sodium ascorbate, 2 nM phosphate buffer, 10% ethanol, 0 hr); 6 in data set [1] (200 mg sodium ascorbate, 2 nM phosphate buffer, 10% ethanol, 2 hr); 6 in data set [1] (200 mg sodium ascorbate, 2 nM phosphate buffer, 10% ethanol, 4 hr); 6 in data set [1] (200 mg sodium ascorbate, 2 nM phosphate buffer, 10% ethanol, 6 hr). Moreover, the “Purity (radiochemical purity)” value in data set [2] (setting [7]) is 99.05%; in data set [2] (setting [8]), 95.53%; in data set [2] (setting [9]) it was 93.77%; in data set [2] (setting [10]) it was 90.04%; in data set [2] ([^18F]PI-2620, 100 mg sodium ascorbate, 2 nM phosphate buffer, 10% ethanol, 0 hr), 99.05%; in data set [2] ([^18F]PI-2620, 100 mg sodium ascorbate, 2 nM phosphate buffer, 10% ethanol, 2 hr), 95.53%. Also, the “Purity (radiochemical purity)” value in data set [2] ([^18F]PI-2620, 100 mg sodium ascorbate, 2 nM phosphate buffer, 10% ethanol, 4 hr) is reported as 93.77%; in data set [2] ([^18F]PI-2620, 100 mg sodium ascorbate, 2 nM phosphate buffer, 10% ethanol, 6 hr), 90.04%; in data set [2] ([^18F]PI-2620, 200 mg sodium ascorbate, 2 nM phosphate buffer, 10% ethanol, 0 hr), 99.47%; in data set [2] ([^18F]PI-2620, 200 mg sodium ascorbate, 2 nM phosphate buffer, 10% ethanol, 2 hr), 96.95%; in data set [2] ([^18F]PI-2620, 200 mg sodium ascorbate, 2 nM phosphate buffer, 10% ethanol, 4 hr), 95.25%; in data set [2] ([^18F]PI-2620, 200 mg sodium ascorbate, 2 nM phosphate buffer, 10% ethanol, 6 hr), 93.00%.
Turning to `Nc1ccc(C(=O)O)cc1` [VB10, 4-aminobenzoic acid], the “PH (paper)” value in data set [1] (setting [3]) was 6; in data set [1] (setting [4]), 6; in data set [1] (setting [5]), 6; in data set [1] (setting [6]), 6; in data set [1] (10% ethanol, water for injection, 50 mg/mL vitamin, 0 hr), 7; in data set [1] (10% ethanol, water for injection, 50 mg/mL vitamin, 2 hr) it was 6. The “PH (paper)” value in data set [1] (10% ethanol, water for injection, 50 mg/mL vitamin, 4 hr) is 7; in data set [1] (10% ethanol, water for injection, 50 mg/mL vitamin, 6 hr), 7. Also, the “Purity (radiochemical purity)” value stood at 98.01% in data set [2] (setting [7]); 94.44% in data set [2] (setting [8]); 91.25% in data set [2] (setting [9]); 86.09% in data set [2] (setting [10]); 99.15% in data set [2] ([^18F]PI-2620, ethanol and water for injection (10% ethanol), 50 mg/mL vitamin, no phosphate buffer, 0 hr); 98.71% in data set [2] ([^18F]PI-2620, ethanol and water for injection (10% ethanol), 50 mg/mL vitamin, no phosphate buffer, 2 hr). The “Purity (radiochemical purity)” value in data set [2] ([^18F]PI-2620, ethanol and water for injection (10% ethanol), 50 mg/mL vitamin, no phosphate buffer, 4 hr) came to 98.83%; in data set [2] ([^18F]PI-2620, ethanol and water for injection (10% ethanol), 50 mg/mL vitamin, no phosphate buffer, 6 hr) it was 98.73%.
